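Test compounds were applied to cells in 96-well plates for 48 hours at 5 doses. GI50: concentration for 50% inhibition of growth. Definition used: TGI = concentration required for complete inhibition of growth.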
Assays:
Test in all cases: NCI tumour cell line growth inhibition, 48 h
786-0 renal = tested on: 786-0 renal
A498 renal = tested on: A498 renal
A549 NSCLC = tested on: A549 NSCLC
ACHN renal = tested on: ACHN renal
BT-549 breast = tested on: BT-549 breast
CAKI-1 renal = tested on: CAKI-1 renal
CCRF-CEM leukemia = tested on: CCRF-CEM leukemia
COLO 205 colon = tested on: COLO 205 colon
DU-145 prostate = tested on: DU-145 prostate
EKVX NSCLC = tested on: EKVX NSCLC
HCC-2998 colon = tested on: HCC-2998 colon
HCT-116 colon = tested on: HCT-116 colon
HCT-15 colon = tested on: HCT-15 colon
HL-60(TB) leukemia = tested on: HL-60(TB) leukemia
HOP-62 NSCLC = tested on: HOP-62 NSCLC
HOP-92 NSCLC = tested on: HOP-92 NSCLC
HS 578T breast = tested on: HS 578T breast
HT29 colon = tested on: HT29 colon
IGROV1 ovarian = tested on: IGROV1 ovarian
KM12 colon = tested on: KM12 colon
LOX IMVI melanoma = tested on: LOX IMVI melanoma
M14 melanoma = tested on: M14 melanoma
MALME-3M melanoma = tested on: MALME-3M melanoma
MCF7 breast = tested on: MCF7 breast
MDA-MB-231 breast = tested on: MDA-MB-231 breast
MDA-MB-435 = tested on: MDA-MB-435
MOLT-4 leukemia = tested on: MOLT-4 leukemia
NCI-H226 lung = tested on: NCI-H226 lung
NCI-H23 lung = tested on: NCI-H23 lung
NCI-H460 lung = tested on: NCI-H460 lung
NCI-H522 lung = tested on: NCI-H522 lung
NCI/ADR-RES ovarian = tested on: NCI/ADR-RES ovarian
OVCAR-3 ovarian = tested on: OVCAR-3 ovarian
OVCAR-4 ovarian = tested on: OVCAR-4 ovarian
OVCAR-5 ovarian = tested on: OVCAR-5 ovarian
OVCAR-8 ovarian = tested on: OVCAR-8 ovarian
PC-3 prostate = tested on: PC-3 prostate
RPMI-8226 leukemia = tested on: RPMI-8226 leukemia
RXF 393 renal = tested on: RXF 393 renal
SF-268 CNS = tested on: SF-268 CNS
SF-295 CNS = tested on: SF-295 CNS
SF-539 CNS = tested on: SF-539 CNS
SK-MEL-2 melanoma = tested on: SK-MEL-2 melanoma
SK-MEL-28 melanoma = tested on: SK-MEL-28 melanoma
SK-MEL-5 melanoma = tested on: SK-MEL-5 melanoma
SK-OV-3 ovarian = tested on: SK-OV-3 ovarian
SN12C renal = tested on: SN12C renal
SNB-19 CNS = tested on: SNB-19 CNS
SNB-75 CNS = tested on: SNB-75 CNS
SR leukemia = tested on: SR leukemia
SW-620 colon = tested on: SW-620 colon
T-47D breast = tested on: T-47D breast
TK-10 renal = tested on: TK-10 renal
U251 CNS = tested on: U251 CNS
UACC-257 melanoma = tested on: UACC-257 melanoma
UACC-62 melanoma = tested on: UACC-62 melanoma
UO-31 renal = tested on: UO-31 renal

Cc1ccc2cc3c(N)c4c(C)ccc(C)c4nc3nc2c1
GI50 (786-0 renal): 6.72 µM
TGI (786-0 renal): 20.5 µM
GI50 (A498 renal): 11.9 µM
TGI (A498 renal): 25.1 µM
GI50 (A549 NSCLC): 1.85 µM
TGI (A549 NSCLC): 3.44 µM
GI50 (ACHN renal): 2.68 µM
TGI (ACHN renal): 13.2 µM
GI50 (BT-549 breast): 14.8 µM
TGI (BT-549 breast): 29.7 µM
GI50 (CAKI-1 renal): 10.2 µM
TGI (CAKI-1 renal): 22 µM
GI50 (CCRF-CEM leukemia): 4.04 µM
TGI (CCRF-CEM leukemia): 36.8 µM
GI50 (COLO 205 colon): 5.77 µM
TGI (COLO 205 colon): 20 µM
GI50 (DU-145 prostate): 5.82 µM
TGI (DU-145 prostate): 18.6 µM
GI50 (EKVX NSCLC): 8.04 µM
TGI (EKVX NSCLC): 21.4 µM
GI50 (HCC-2998 colon): 4.26 µM
TGI (HCC-2998 colon): 14.8 µM
GI50 (HCT-116 colon): 1.68 µM
TGI (HCT-116 colon): 3.27 µM
GI50 (HCT-15 colon): 1.33 µM
TGI (HCT-15 colon): 10.3 µM
GI50 (HL-60(TB) leukemia): 18.7 µM
TGI (HL-60(TB) leukemia): 40.8 µM
GI50 (HOP-62 NSCLC): 9.79 µM
TGI (HOP-62 NSCLC): 25.5 µM
GI50 (HOP-92 NSCLC): 1.87 µM
TGI (HOP-92 NSCLC): 16.5 µM
GI50 (HS 578T breast): 12.8 µM
TGI (HS 578T breast): 34.5 µM
GI50 (HT29 colon): 2.89 µM
TGI (HT29 colon): 12.9 µM
GI50 (IGROV1 ovarian): 6.73 µM
TGI (IGROV1 ovarian): 22.3 µM
GI50 (KM12 colon): 2.12 µM
TGI (KM12 colon): 16.9 µM
GI50 (LOX IMVI melanoma): 1.65 µM
TGI (LOX IMVI melanoma): 3.4 µM
GI50 (M14 melanoma): 12.4 µM
TGI (M14 melanoma): 26.7 µM
GI50 (MALME-3M melanoma): 17.7 µM
TGI (MALME-3M melanoma): 36.1 µM
GI50 (MCF7 breast): 1.44 µM
TGI (MCF7 breast): 2.98 µM
GI50 (MDA-MB-231 breast): 3.17 µM
TGI (MDA-MB-231 breast): 20.4 µM
GI50 (MDA-MB-435): 10.9 µM
TGI (MDA-MB-435): 23.4 µM
GI50 (MOLT-4 leukemia): 3.49 µM
TGI (MOLT-4 leukemia): 21.7 µM
GI50 (NCI-H226 lung): 13.1 µM
TGI (NCI-H226 lung): 29.5 µM
GI50 (NCI-H23 lung): 11.6 µM
TGI (NCI-H23 lung): 28.6 µM
GI50 (NCI-H460 lung): 1.84 µM
TGI (NCI-H460 lung): 3.77 µM
GI50 (NCI-H522 lung): 3.74 µM
TGI (NCI-H522 lung): 20.7 µM
GI50 (NCI/ADR-RES ovarian): 2.95 µM
TGI (NCI/ADR-RES ovarian): 16.7 µM
GI50 (OVCAR-3 ovarian): 6.12 µM
TGI (OVCAR-3 ovarian): 21.1 µM
GI50 (OVCAR-4 ovarian): 3.79 µM
TGI (OVCAR-4 ovarian): 14.8 µM
GI50 (OVCAR-5 ovarian): 1.99 µM
TGI (OVCAR-5 ovarian): 5.05 µM
GI50 (OVCAR-8 ovarian): 5.64 µM
TGI (OVCAR-8 ovarian): 23.5 µM
GI50 (PC-3 prostate): 6.89 µM
TGI (PC-3 prostate): 21.6 µM
GI50 (RPMI-8226 leukemia): 2.02 µM
TGI (RPMI-8226 leukemia): 5.27 µM
GI50 (RXF 393 renal): 1.8 µM
TGI (RXF 393 renal): 3.62 µM
GI50 (SF-268 CNS): 11.8 µM
TGI (SF-268 CNS): 25.8 µM
GI50 (SF-295 CNS): 1.66 µM
TGI (SF-295 CNS): 3.05 µM
GI50 (SF-539 CNS): 7.97 µM
TGI (SF-539 CNS): 23.1 µM
GI50 (SK-MEL-2 melanoma): 14 µM
TGI (SK-MEL-2 melanoma): 29.3 µM
GI50 (SK-MEL-28 melanoma): 13.7 µM
TGI (SK-MEL-28 melanoma): 28.5 µM
GI50 (SK-MEL-5 melanoma): 8.14 µM
TGI (SK-MEL-5 melanoma): 21 µM
GI50 (SK-OV-3 ovarian): 11.4 µM
TGI (SK-OV-3 ovarian): 24 µM
GI50 (SN12C renal): 6.75 µM
TGI (SN12C renal): 21 µM
GI50 (SNB-19 CNS): 7.02 µM
TGI (SNB-19 CNS): 23.8 µM
GI50 (SNB-75 CNS): 5.97 µM
TGI (SNB-75 CNS): 20.7 µM
GI50 (SR leukemia): 2.3 µM
TGI (SR leukemia): 7.33 µM
GI50 (SW-620 colon): 2.81 µM
TGI (SW-620 colon): 15.3 µM
GI50 (T-47D breast): 2.14 µM
TGI (T-47D breast): 6.1 µM
GI50 (TK-10 renal): 12.2 µM
TGI (TK-10 renal): 25.5 µM
GI50 (U251 CNS): 4.58 µM
TGI (U251 CNS): 18.1 µM
GI50 (UACC-257 melanoma): 14.2 µM
TGI (UACC-257 melanoma): 28.6 µM
GI50 (UACC-62 melanoma): 7.72 µM
TGI (UACC-62 melanoma): 22 µM
GI50 (UO-31 renal): 3.6 µM
TGI (UO-31 renal): 19.6 µM
